Consider four compounds from patent US20110146678A1, “PROCESS FOR IMPROVING CRYSTALLINITY” (priority 2008, published 2011).

Assay type in all cases: physicochemical
The nature of series [1]: Storage stability of FPF of binary DPI formulations at 25° C./75% RH. The method, then: All formulations were stored for one and three months at 25° C./75% RH. The FPF of the formulation containing micronized fluticasone propionate decreased by almost 50% after storage for one month and almost 70% after storage for three months compared to the FPF at t=0. However, the FPF of formulations containing particles prepared by the current invention were not as affected following storage in stress conditions. The FPF of sample 3 decreased 6% after storage for one month and decreased 3% after storage for three months compared to the FPF at t=0. The FPF of sample 2 decreased 7% after one months storage and 28% after three months storage compared to the FPF at t=0. There was a small yet statistically significant decrease, 29%, in the fine particle fraction of the formulation containing sample 4 which was prepared by alternative precipitation approach after one month with a decrease of 24% after 3 months storage compared to the FPF at t=0. This may be related to the planar morphology of the particles, and therefore, the particles are likely to develop greater adhesion to the lactose as result of capillary forces. It is clear that the FPF of samples 2 and 3 maintained a higher FPF than the micronized sample or sample 4 when stored for one or three months in the conditions described. The FPF of samples 2 and 3 decreased by a smaller percentage than the micronized sample when stored for one or three months in the conditions described. […] Sample 4 has a much lower FPF than samples 2 and 3 after storage for one or three months.

Series [2] is described as follows: Particle size by Sympatec HELOS laser diffraction / optical microscopy. The settings on record: for D(10) / D(50) / D(90): Sympatec HELOS laser diffraction. The source says: The particle size can be measured by laser diffraction techniques: Light from a laser is shone into a cloud of particles, which are suspended in a transparent gas such as air. The particles scatter the light; smaller particles scattering the light at larger angles than bigger particles. The scattered light can be measured by a series of photodetectors placed at different angles. This is known as the diffraction pattern for the sample. The diffraction pattern can be used to measure the size of the particles using well documented light scattering theory. The particles are assumed to be spherical but few particles are actually spherical. The particle diameters are calculated from the measured volume of the particle, but assume a sphere of equivalent volume.
Budesonide (5 g) was dissolved in 100 mL of dichloromethane. The samples of budesonide powder collected in the ultrasonic chamber were produced using a Büchi-290 laboratory-scale spray dryer […], Büchi, Switzerland). The solution was atomized using nitrogen at 7 bar flowing at approximately at 10 Lpm (Litre/minute). The aspirator was set at 100% and flow rate of solution was set to […]. The gas temperature was set to 120° C. Budesonide particles were collected the ultrasonic chamber connected to the end of high performance cyclone separator. In order to apply ultrasound to the spray dried particles, the collection ultrasonic chamber was filled with heptane thermoregulated at 25° C. and was fitted with an ultrasonic probe resonating at 20 kHz. Ultrasound at 20 W power was applied between 30 minutes and 1 hour. The resulting particle slurry was spray dried and particles characterized by optical microscopy and DSC (Differential Scanning calorimetry). The size of the particles were typically in the range of 1-7 μm.
The D(10), D(50), D(90) for two representative samples were 1.21, 3.03, 4.63 μm and 1.05, 2.99, 3.76 μm respectively as determined by Sympatec HELOS laser diffraction. […]

A short description of series [3]: Aerosolisation efficiency of binary DPI formulations (0.4% w/w FP in lactose), NGI via Rotahaler. The settings on record: binary DPI, Rotahaler 60 Lpm. The method, then:
The aerosolization efficiency of samples 2, 3 and 4 of engineered FP were evaluated using binary formulations containing 0.4% w/w FP.
Each binary formulation contained 0.016 g FP and 3.984 g lactose (ML001, DMV-Fonterra, Vehgel, Netherlands) and was prepared by geometric mixing. Following this, the blend was subsequently prepared using a Turbula T2F (Willy A Bachofen A G, Basel, Switzerland) at 46 rpm for 45 minutes.
Following content uniformity testing, 12.5±1 mg of each blend was loaded into size 3 hydroxypropylmethyl cellulose capsules (HPMC, Shionogi Qualicaps S A, Basingstoke, UK). The capsules were stored at 44% RH for 24 h prior to in vitro performance testing.
Testing was performed using a Next Generation Impactor (NGI) with pre-separator, which was connected to a vacuum pump (GE Motors). Prior to testing, the pre-separator was filled with 15 ml of mobile phase and the cups of the NGI cups were coated with 1% v/v silicone oil in hexane to eliminate particle bounce.
For each experiment, four individual capsules of the same formulation were discharged into the NGI at 60 Lpm for 4 s via a Rotahaler (GSK, Ware, UK) DPI device. Additionally, blisters from a Flixotide Diskus (GSK, Ware, UK) were emptied and loaded into size 3 HPMS capsules and discharged into a NGI at 60 Lpm1 for 4 s via a Rotahaler. Following aerosolization, the NGI apparatus was dismantled and the inhaler, capsules and each part of the NGI was washed down into known volumes of HPLC mobile phase.
The mass of drug deposited on each part of the NGI was determined by HPLC. This protocol was repeated three times for each blend, following which, the mass median aerodynamic diameter (MMAD), geometric standard deviation (GSD), fine particle dose (FPD) and fine particle fraction of the emitted dose (FPFED) were determined. The FPD represented the mass of drug that was collected on stages 3-8 of the NGI.

The mark [4] stands for this setting: storage one month at 25° C./75% RH.
Where [5] appears, read: storage three months at 25° C./75% RH.

`CCC(=O)O[C@]1(C(=O)SCF)[C@H](C)C[C@H]2[C@@H]3C[C@H](F)C4=CC(=O)C=C[C@]4(C)[C@@]3(F)[C@@H](O)C[C@@]21C` [Sample 2, Fluticasone propionate]: the “decrease of FPF compared to FPF at t=0” value in series [1] (setting [4]) came to 7%. The “decrease of FPF compared to FPF at t=0” value in series [1] (setting [5]) came out at 28%. In series [2], the “D(10)” value was determined as 1.35 μm, the “D(50)” value came out at 3.25 μm and the “D(90)” value was determined as 5.63 μm. In addition, the “size of the particles, typical range” value in series [2] (after ultrasound treatment and spray drying of slurry) is given as 1-6 μm. Moreover, in series [3] (listed as Samples 2), the “percentage fine particle fraction (% FPF) compared with micronized FP” value is reported as “significantly greater than that of micronized FP”.
As for `CCC(=O)O[C@]1(C(=O)SCF)[C@H](C)C[C@H]2[C@@H]3C[C@H](F)C4=CC(=O)C=C[C@]4(C)[C@@]3(F)[C@@H](O)C[C@@]21C` [Sample 3, Fluticasone propionate], the “decrease of FPF compared to FPF at t=0” value in series [1] (setting [4]) came to 6%. The “decrease of FPF compared to FPF at t=0” value in series [1] (setting [5]) is listed as 3%. Further, in series [2], the “D(10)” value came out at 0.99 μm, the “D(50)” value worked out at 2.55 μm and the “D(90)” value came to 4.97 μm. Further, the “percentage fine particle fraction (% FPF) compared with micronized FP” value in series [3] is “significantly greater than that of micronized FP”.
For the compound `CCC(=O)O[C@]1(C(=O)SCF)[C@H](C)C[C@H]2[C@@H]3C[C@H](F)C4=CC(=O)C=C[C@]4(C)[C@@]3(F)[C@@H](O)C[C@@]21C` [Sample 4, fluticasone propionate, reference compound], the “decrease of FPF compared to FPF at t=0” value in series [1] (setting [4]) turned out to be 29%. The “decrease of FPF compared to FPF at t=0” value in series [1] (setting [5]) is recorded as 24%. Moreover, in series [2], the “D(10)” value is recorded as 1.14 μm, the “D(50)” value was 2.67 μm and the “D(90)” value came to 5.11 μm. Also, the “percentage fine particle fraction (% FPF) compared with micronized FP” value in series [3] is on record as “significantly lower % FPF than micronized FP”.
For the compound `CCC(=O)O[C@]1(C(=O)SCF)[C@H](C)C[C@H]2[C@@H]3C[C@H](F)C4=CC(=O)C=C[C@]4(C)[C@@]3(F)[C@@H](O)C[C@@]21C` [micronized FP, Fluticasone Propionate], the “decrease of FPF compared to FPF at t=0” value in series [1] (storage one month at 25° C./75% RH, listed as micronized fluticasone propionate) is reported as about 50%; in series [1] (storage three months at 25° C./75% RH, listed as micronized fluticasone propionate) it was about 70%.
